Patent US20250163038A1, “CBL-B MODULATORS AND USES THEREOF” (Nimbus Clio, Inc., priority 2021, published 2025)

Legend:
[1] = target: T1, Recombinant human c-Cbl (aa 47-435) (Homo sapiens, UniProt P22681); assay: c-Cbl Biochemical Assay (TR-FRET); settings: hc-Cbl Biochemical Assay (TR-FRET); read-out: TR-FRET hcCbl IC50
T1 sequence (P22681 47-435): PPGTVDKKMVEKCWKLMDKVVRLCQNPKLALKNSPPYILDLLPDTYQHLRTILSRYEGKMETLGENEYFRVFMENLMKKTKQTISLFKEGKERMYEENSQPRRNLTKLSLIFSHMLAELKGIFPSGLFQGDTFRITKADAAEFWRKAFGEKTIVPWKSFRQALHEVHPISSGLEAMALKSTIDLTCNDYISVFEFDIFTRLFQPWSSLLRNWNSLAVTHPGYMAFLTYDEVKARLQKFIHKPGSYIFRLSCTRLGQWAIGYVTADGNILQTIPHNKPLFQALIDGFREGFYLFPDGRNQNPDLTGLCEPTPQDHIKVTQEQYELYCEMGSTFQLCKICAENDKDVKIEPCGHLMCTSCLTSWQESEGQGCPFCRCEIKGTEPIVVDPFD

[2] = target: Recombinant human Cbl-b (aa 36-427) (Homo sapiens, UniProt Q13191); assay: Cbl-b Biochemical Assay (TR-FRET); settings: read-out: TR-FRET hCbl-b IC50
Sequence of Recombinant human Cbl-b (aa 36-427) (Q13191 36-427): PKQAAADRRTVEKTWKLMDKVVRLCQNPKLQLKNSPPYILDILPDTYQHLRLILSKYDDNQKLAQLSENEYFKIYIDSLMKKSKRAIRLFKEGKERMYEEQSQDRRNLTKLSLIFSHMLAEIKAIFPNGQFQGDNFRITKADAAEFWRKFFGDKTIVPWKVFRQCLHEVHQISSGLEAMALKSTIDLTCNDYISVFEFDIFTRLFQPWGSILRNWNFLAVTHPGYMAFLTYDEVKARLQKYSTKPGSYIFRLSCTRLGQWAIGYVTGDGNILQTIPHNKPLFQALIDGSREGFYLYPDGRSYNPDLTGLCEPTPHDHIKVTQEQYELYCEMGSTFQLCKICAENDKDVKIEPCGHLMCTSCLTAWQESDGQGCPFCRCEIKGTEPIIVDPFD

[3] = tested on: Jurkat (clone E6-1) cells with NFAT luciferase reporter; assay: Jurkat reporter assay (NFAT Luciferase); format: cell-based; settings: Homo sapiens; Jurkat NFAT luciferase reporter cells, anti-CD3 stimulation, 6 hr; read-out: Jurkat NFAT EC50

Row | Compound | IC50 [1] | IC50 [2] | EC50 [3]
1 | Cn1cnnc1-c1cc(F)ccc1-c1cccc(-c2nc3cc(CN[C@H]4CCC[C@@H]4O)cc(C(F)(F)F)c3[nH]2)c1 [BN-2, (1S,2S)-2-(((2-(4′-Fluoro-2′-(4-methyl-4H-1,2,4-triazol-3-yl)-[1,1′-biphenyl]-3-yl)-7-(trifluoromethyl)-1H-benzo[d]imidazol-5-yl)methyl)amino)cyclopentan-1-ol] | 1000 to 10000 nM | < 200 nM | 200 to 1000 nM
2 | C[C@H]1CCCN(Cc2cc(C(F)(F)F)c3[nH]c(-c4cccc(-c5ccc(F)cc5-c5nncn5C)c4)nc3c2)C1 [BO-2, (S)-2-(4′-Fluoro-2′-(4-methyl-4H-1,2,4-triazol-3-yl)-[1,1′-biphenyl]-3-yl)-5-((3-methylpiperidin-1-yl)methyl)-7-(trifluoromethyl)-1H-benzo[d]imidazole] | 1000 to 10000 nM | < 200 nM | 200 to 1000 nM
3 | Cn1cnnc1-c1cc(F)ccc1-c1cccc(-c2nc3cc(CNCC4(O)CCC4)cc(C(F)(F)F)c3[nH]2)c1 [BP-1, 1-((((2-(4′-Fluoro-2′-(4-methyl-4H-1,2,4-triazol-3-yl)-[1,1′-biphenyl]-3-yl)-7-(trifluoromethyl)-1H-benzo[d]imidazol-5-yl)methyl)amino)methyl)cyclobutan-1-ol] | 1000 to 10000 nM | < 200 nM | 200 to 1000 nM
4 | Cn1cnnc1-c1cc(F)ccc1-c1cccc(-c2nc3cc(CNCC4(O)COC4)cc(C(F)(F)F)c3[nH]2)c1 [BQ-1, 3-((((2-(4′-Fluoro-2′-(4-methyl-4H-1,2,4-triazol-3-yl)-[1,1′-biphenyl]-3-yl)-7-(trifluoromethyl)-1H-benzo[d]imidazol-5-yl)methyl)amino)methyl)oxetan-3-ol] | 1000 to 10000 nM | < 200 nM | 200 to 1000 nM
5 | Cn1cnnc1-c1cc(F)ccc1-c1cccc(-c2nc3cc(CN4CC(C)(O)C4)cc(C(F)(F)F)c3[nH]2)c1 [BR-1, 1-((2-(4′-Fluoro-2′-(4-methyl-4H-1,2,4-triazol-3-yl)-[1,1′-biphenyl]-3-yl)-7-(trifluoromethyl)-1H-benzo[d]imidazol-5-yl)methyl)-3-methylazetidin-3-ol] | 1000 to 10000 nM | < 200 nM | 1000 to 10000 nM
6 | Cn1cnnc1-c1cc(F)ccc1-c1cccc(-c2nc3cc(CNCC(C)(C)O)cc(C(F)(F)F)c3[nH]2)c1 [BT-1, 1-(((2-(4′-Fluoro-2′-(4-methyl-4H-1,2,4-triazol-3-yl)-[1,1′-biphenyl]-3-yl)-7-(trifluoromethyl)-1H-benzo[d]imidazol-5-yl)methyl)amino)-2-methylpropan-2-ol] | 1000 to 10000 nM | < 200 nM | 200 to 1000 nM
7 | Cn1cnnc1-c1cc(F)ccc1-c1cccc(-c2nc3cc(CN4CCC5(CC4)CC5)cc(C(F)(F)F)c3[nH]2)c1 [BU-1, 5-((6-Azaspiro[2.5]octan-6-yl)methyl)-2-(4′-fluoro-2′-(4-methyl-4H-1,2,4-triazol-3-yl)-[1,1′-biphenyl]-3-yl)-7-(trifluoromethyl)-1H-benzo[d]imidazole] | 1000 to 10000 nM | < 200 nM | 200 to 1000 nM
8 | Cn1cnnc1-c1cc(F)ccc1-c1cccc(-c2nc3cc(CNCC4(O)CC4)cc(C(F)(F)F)c3[nH]2)c1 [BV-1, 1-((((2-(4′-Fluoro-2′-(4-methyl-4H-1,2,4-triazol-3-yl)-[1,1′-biphenyl]-3-yl)-7-(trifluoromethyl)-1H-benzo[d]imidazol-5-yl)methyl)amino)methyl)cyclopropan-1-ol] | 1000 to 10000 nM | < 200 nM | 200 to 1000 nM
9 | Cn1cnnc1-c1cc(F)ccc1-c1cccc(-c2nc3cc(CN[C@@H]4CCC[C@@H]4O)ccc3[nH]2)c1 [BY-1, (1S,2R)-2-(((2-(4′-Fluoro-2′-(4-methyl-4H-1,2,4-triazol-3-yl)-[1,1′-biphenyl]-3-yl)-1H-benzo[d]imidazol-5-yl)methyl)amino)cyclopentan-1-ol] | 1000 to 10000 nM | < 200 nM | 1000 to 10000 nM
10 | CN1CCC[C@H](NCc2cc(C(F)(F)F)c3[nH]c(-c4cccc(-c5ccc(F)cc5-c5nncn5C)c4)nc3c2)C1=O [CC-2, (S)-3-(((2-(4′-Fluoro-2′-(4-methyl-4H-1,2,4-triazol-3-yl)-[1,1′-biphenyl]-3-yl)-7-(trifluoromethyl)-1H-benzo[d]imidazol-5-yl)methyl)amino)-1-methylpiperidin-2-one, formic Acid] | 1000 to 10000 nM | < 200 nM | 1000 to 10000 nM
11 | Cn1cnnc1-c1cc(F)ccc1-c1cccc(-c2nc3cc(CNCC(C)(C)F)cc(C(F)(F)F)c3[nH]2)c1 [CD-2, 2-Fluoro-N-((2-(4′-fluoro-2′-(4-methyl-4H-1,2,4-triazol-3-yl)-[1,1′-biphenyl]-3-yl)-7-(trifluoromethyl)-1H-benzo[d]imidazol-5-yl)methyl)-2-methylpropan-1-amine, Formic Acid] | 1000 to 10000 nM | < 200 nM | 200 to 1000 nM
12 | Cn1cnnc1-c1cc(F)ccc1-c1cccc(-c2nc3cc(CNCC4(O)CCCC4)cc(C(F)(F)F)c3[nH]2)c1 [CJ-1, 1-((((2-(4′-Fluoro-2′-(4-methyl-4H-1,2,4-triazol-3-yl)-[1,1′-biphenyl]-3-yl)-7-(trifluoromethyl)-1H-benzo[d]imidazol-5-yl)methyl)amino)methyl)cyclopentan-1-ol] | < 200 nM | < 200 nM | < 200 nM
13 | Cn1cnnc1-c1cc(F)ccc1-c1cccc(-c2nc3cc(CNCC4(O)CC(F)(F)C4)cc(C(F)(F)F)c3[nH]2)c1 [CK-2, 3,3-Difluoro-1-((((2-(4′-fluoro-2′-(4-methyl-4H-1,2,4-triazol-3-yl)-[1,1′-biphenyl]-3-yl)-7-(trifluoromethyl)-1H-benzo[d]imidazol-5-yl)methyl)amino)methyl)cyclobutan-1-ol] | < 200 nM | < 200 nM | < 200 nM
14 | Cn1cnnc1-c1cc(C#N)ccc1-c1cccc(-c2nc3cc(CO)cc(C(F)(F)F)c3o2)c1 [CL-2, 3′-(5-(Hydroxymethyl)-7-(trifluoromethyl)benzo[d]oxazol-2-yl)-2-(4-methyl-4H-1,2,4-triazol-3-yl)-[1,1′-biphenyl]-4-carbonitrile] | 200 to 1000 nM | < 200 nM | 1000 to 10000 nM
15 | Cn1cnnc1-c1cc(F)ccc1-c1cccc(-c2nc3cc(CN[C@@H]4CCC[C@@H]4O)ccc3o2)c1 [CM-1, (1S,2R)-2-(((2-(4′-Fluoro-2′-(4-methyl-4H-1,2,4-triazol-3-yl)-[1,1′-biphenyl]-3-yl)benzo[d]oxazol-5-yl)methyl)amino)cyclopentan-1-ol] | < 200 nM | < 200 nM | < 200 nM
16 | CO[C@H]1CCC[C@H]1N(C)Cc1cc(C(F)(F)F)c2oc(-c3cccc(-c4ccc(F)cc4-c4nncn4C)c3)nc2c1 [CN-5, (1R,2S)—N-((2-(4′-Fluoro-2′-(4-methyl-4H-1,2,4-triazol-3-yl)-[1,1′-biphenyl]-3-yl)-7-(trifluoromethyl)benzo[d]oxazol-5-yl)methyl)-2-methoxy-N-methylcyclopentan-1-amine] | 200 to 1000 nM | < 200 nM | 200 to 1000 nM
17 | Cn1cnnc1-c1cc(C#N)ccc1-c1cccc(-c2nc3cc(CN[C@@H]4CCC[C@@H]4O)cc(C(F)(F)F)c3o2)c1 [CP-4, 3′-(5-((((1R,2S)-2-Hydroxycyclopentyl)amino)methyl)-7-(trifluoromethyl)benzo[d]oxazol-2-yl)-2-(4-methyl-4H-1,2,4-triazol-3-yl)-[1,1′-biphenyl]-4-carbonitrile] | < 200 nM | < 200 nM | < 200 nM
18 | Cn1cnnc1-c1cc(F)ccc1-c1cccc(-c2nc3cc(CNCC4(O)CC(F)(F)C4)cc(C(F)(F)F)c3o2)c1 [CQ-1, 3,3-Difluoro-1-((((2-(4′-fluoro-2′-(4-methyl-4H-1,2,4-triazol-3-yl)-[1,1′-biphenyl]-3-yl)-7-(trifluoromethyl)benzo[d]oxazol-5-yl)methyl)amino)methyl)cyclobutan-1-ol] | < 200 nM | < 200 nM | < 200 nM
19 | CCN(CC[C@@H](O)C(F)(F)F)Cc1cc(C(F)(F)F)c2oc(-c3cccc(-c4ccc(F)cc4-c4nncn4C)c3)nc2c1 [CR-2] | < 200 nM | < 200 nM | 200 to 1000 nM
20 | Cn1cnnc1-c1cc(F)ccc1-c1cccc(-c2nc3cc(CNC[C@@H](O)C(F)(F)F)cc(C(F)(F)F)c3o2)c1 [CR-3, (R)-1,1,1-trifluoro-3-(((2-(4′-fluoro-2′-(4-methyl-4H-1,2,4-triazol-3-yl)-[1,1′-biphenyl]-3-yl)-7-(trifluoromethyl)benzo[d]oxazol-5-yl)methyl)amino)propan-2-ol] | < 200 nM | < 200 nM | < 200 nM
21 | Cn1cnnc1-c1cc(F)ccc1-c1cccc(-c2nc3cc(CNCC4(C#N)CCCC4)cc(C(F)(F)F)c3[nH]2)c1 [CS-1, 1-((((2-(4′-Fluoro-2′-(4-methyl-4H-1,2,4-triazol-3-yl)-[1,1′-biphenyl]-3-yl)-7-(trifluoromethyl)-1H-benzo[d]imidazol-5-yl)methyl)amino)methyl)cyclopentane-1-carbonitrile] | < 200 nM | < 200 nM | 200 to 1000 nM
